Experimental data taken from patent publication US8889662B2, “Method to alter sex ratios in avian offspring” (University of Georgia Research Foundation, Inc., priority 2009, dated 2014).

Experiments:
[1] = test system: zebra finch (Taeniopygia guttata); assay: Example 1: offspring sex after a single maternal CORT injection at sex chromosome segregation, zebra finches; format: in vivo; details: 20 ug CORT about 19 h after first egg, third egg of sequence, control injected 46%
Description: This experiment was conducted to determine whether a single injection of CORT at the critical time of sex chromosome segregation is sufficient to skew offspring sex ratios towards females. Female zebra finches were monitored for signs of nest-building and egg-laying. Approximately 19 h following the appearance of the first egg (1 h before sex chromosome segregation), females received one of two treatments: (1) a high dose of CORT (20 ug in 50 ul peanut oil), or (2) a control treatment (50 ul peanut oil). Because oviposition and ovulation are nearly concurrent, ovulation of the second egg took place when the first egg was laid. Thus, the egg that would be affected by our treatment was the third egg in the sequence. Eggs were labeled as they were laid and were collected after 6 d of incubation for molecular sexing analysis as described above. The percentage of females producing male offspring in each group were calculated and compared using chi square analyses. Blood samples were taken from a subset of females 1 h and 2.5 h post injection to verify that the CORT injection did, in fact, elevate circulating maternal CORT concentrations. CORT was quantified using a standard radioimmunoassay and CORT concentrations were log transformed and analyzed using an analysis of variance (ANOVA).

[2] = test system: white leghorn and brown hyline hens; assay: Example 1: offspring sex after a single maternal CORT injection, chickens; format: in vivo, chicken; details: 2 mg CORT about 19 h after a mid-sequence egg, p=0.002 vs controls, p<0.0001 vs non-injected
Description: This experiment was similar to the previous one in that a single injection of CORT was provided at the time of meiotic segregation and the sexes of the resulting eggs were quantified. Laying patterns of female white leghorn and brown hyline hens were monitored and timed. Females that were laying between 1000 and 1200 h EST were included in the experiment. Females were artificially inseminated using pooled semen from 5-10 roosters at two time points prior to treatment.
Approximately 19 h following the appearance of a mid-sequence egg, females received one of three treatments: (1) a high dose of CORT (2 mg in 0.5 ml peanut oil), (2) a control treatment (0.5 ml peanut oil), or (3) no injection treatment. The egg corresponding to the next ovulation event was labeled, collected, and incubated at 37° C. for a period of 7 days to allow for embryonic development. Embryos were separated and sexed using PCR based techniques as described above. The percentage of females producing male offspring in each group were calculated and compared using chi square analyses. […] CORT was quantified using a standard radioimmunoassay and CORT concentrations were log transformed and analyzed using an analysis of variance (ANOVA).

[3] = Example 1: plasma CORT radioimmunoassay after injection, chickens; format: in vivo, chicken; details: hens
Description: Approximately 19 h following the appearance of a mid-sequence egg, females received one of three treatments: (1) a high dose of CORT (2 mg in 0.5 ml peanut oil), (2) a control treatment (0.5 ml peanut oil), or (3) no injection treatment. The egg corresponding to the next ovulation event was labeled, collected, and incubated at 37° C. for a period of 7 days to allow for embryonic development. Embryos were separated and sexed using PCR based techniques as described above. The percentage of females producing male offspring in each group were calculated and compared using chi square analyses. Also, as described above, blood samples were taken from a subset of females one hour and four hours after injection to verify that the CORT treatment did, in fact, elevate maternal CORT concentrations at the time of meiotic segregation. CORT was quantified using a standard radioimmunoassay and CORT concentrations were log transformed and analyzed using an analysis of variance (ANOVA).

[4] = test system: Hyline W-36 and Brown layer hens; assay: Example 3: ovulation and oviposition rates after injection, laying hens; format: in vivo, chicken; details: 1.5 mg subcutaneously
Description: Injection treatments were administered to hens subcutaneously in the back of the neck five hours prior to the predicted time of ovulation with one of the following treatments: 0.5 ml of control peanut oil (CONT) or 1.5 mg corticosterone dissolved in 0.5 ml of peanut oil (CORT). Ovulated follicles took 24 h to pass through the remainder of the reproductive tract and were collected at oviposition (FIG. 6). Eggs were also collected on the day prior to injections and were considered the unmanipulated group (UN). […] Eggs were incubated for 10 days at 37.5° C. and 58% relative humidity in a Natureform incubator.

[5] = test system: laying hens; assay: Preliminary studies with silastic CORT implants: CORT concentrations and laying patterns; format: in vivo, chicken
Description: Additionally, concentrations of CORT and three other hormonal factors known to interact with CORT and ovarian follicular development—testosterone, progesterone, and leptin—will be measured in blood samples taken 4 h after ovulation as well as 4 and 6 h prior to ovulation in females from both treatment groups on days 3, 6, and 12 (to correspond with ovulation of collected eggs above). CORT concentrations will be measured in the yolk of each collected egg as well. […] Additionally, laying patterns were monitored for 2 weeks following implantation and 100% of birds implanted with CORT implants continued to lay at a similar frequency compared to before implantation, illustrating that we will be able to collect eggs from birds following this chronic implant treatment.

[6] = Plasma corticosterone in hens after CORT injections (FIG. 9); format: in vivo, chicken; details: 0.5 mg CORT in peanut oil (physiologically high dose)
Description: FIG. 9. Plasma corticosterone concentrations in hens after injections of 1.5 mg CORT, 0.5 mg CORT, oil control, and uninjected.
To test for a dose-dependent effect of CORT on sex ratios, female leghorns will be housed in layer cages, provided access to food and water ad libitum and will be randomly divided into one of seven treatment groups (n=72 each). […] To test whether CORT is a mediator in the sex determination process, one group from each of these treatment sets will also receive a dose of RU-486 (0.5 mg dissolved in 500 ul dH20), a glucocorticoid receptor blocker, administered 15 min prior to the injection treatment itself. […] As a result, treatment with RU-486 should not interrupt normal laying cycles. One final group will receive no injection treatment.

[7] = test system: avian species; details: long-term silastic implants, literature; cited from earlier work
[8] = chickens, previous work; cited from earlier work

C[C@]12C[C@H](O)[C@H]3[C@@H](CCC4=CC(=O)CC[C@@]43C)[C@@H]1CC[C@@H]2C(=O)CO [corticosterone]
eggs that were male (primary sex ratio) [1]: 71% | likelihood of male embryos compared to controls and non-injected females [2]: significantly more likely to be male | circulating CORT concentrations compared to controls ([3]; 2 mg CORT in 0.5 ml peanut oil, within one hour of injection, p<0.0001): significantly increased circulating CORT concentrations | circulating CORT concentrations compared to controls ([3]; 2 mg CORT, four hours post-injection): This difference disappeared | effect on ovulation or oviposition rates [4]: Neither the control nor the corticosterone treatment had an effect on ovulation or oviposition rates | implanted birds that continued to lay at a similar frequency ([5]; silastic CORT implants, laying monitored for 2 weeks after implantation): 100% | CORT concentrations after silastic CORT implants ([5]; within 2 d of implantation, persisted 1 week after implantation): significantly elevated CORT concentrations | CORT concentrations reached [6]: below 40 ng/ml | offspring sex ratio with long-term CORT elevation [7]: sex ratios were skewed significantly towards females | duration of elevated CORT concentrations following injection [8]: approximately 90 minutes
